Measured values as given in paper PMC4503722, “Novel Phenotypic Outcomes Identified for a Public Collection of Approved Drugs from a Publicly Accessible Panel of Assays” (PLoS ONE, 2015).
pIC50: −log10 of the molar value.

Key:
[1] = tested on: endothelial tube formation in co-cultures of ECFCs and ADSCs treated with VEGF; assay: cells; format: cell-based, human; conditions: for pIC50: read-out: VEGF_ADSC\ECFC Angio CD31 TubeArea summarized IC50
DLD-1 = assay: cells; format: cell-based; conditions: basal; for pIC50 / Basal_Viability ATP DLD-1 IC50/EC50: assay number 23; for pIC50: read-out: Basal_Viability ATP DLD-1 summarized IC50
SW480 = assay: cells; format: cell-based; conditions: basal; for pIC50 / Basal_Viability ATP SW480 IC50/EC50: assay number 24; for pIC50: read-out: Basal_Viability ATP SW480 summarized IC50
HCT116 = assay: cells; format: cell-based; conditions: basal; for pIC50 / Basal_Viability ATP HCT116 IC50/EC50: assay number 25; for pIC50: read-out: Basal_Viability ATP HCT116 summarized IC50
[2] = tested on: HCT116 cells treated with a GSK3β inhibitor; assay: cells; format: cell-based; conditions: for pIC50 / GSK3b inh pretreated_Viability ATP HCT116 IC50/EC50: assay number 26, GSK3b inhibitor pretreated; for pIC50: read-out: GSK3b inh pretreated_Viability ATP HCT116 summarized IC50
Colo320 = assay: cells; format: cell-based; conditions: basal; for pIC50 / Basal_Viability ATP Colo 320 IC50/EC50: assay number 27; for pIC50: read-out: Basal_Viability ATP Colo 320 summarized IC50
HT-29 = assay: cells; format: cell-based; conditions: basal; for pIC50 / Basal_Viability ATP HT-29 IC50/EC50: assay number 28; for pIC50: read-out: Basal_Viability ATP HT-29 summarized IC50
RKO = assay: cells; format: cell-based; conditions: basal; for pIC50 / Basal_Viability ATP RKO IC50/EC50: assay number 29; for pIC50: read-out: Basal_Viability ATP RKO summarized IC50
SNU-C1 = assay: cells; format: cell-based; conditions: basal; for pIC50 / Basal_Viability ATP SNU-C1 IC50/EC50: assay number 30; for pIC50: read-out: Basal_Viability ATP SNU-C1 summarized IC50
[3] = tested on: ECFC/ADSC co-culture cell nuclei number; conditions: for pIC50: read-out: VEGF_ADSC\ECFC Angio Hoechst NucArea summarized IC50

Row | Compound | pIC50 [1] | pIC50 (DLD-1) | pIC50 (SW480) | pIC50 (HCT116) | pIC50 [2] | pIC50 (Colo320) | pIC50 (HT-29) | pIC50 (RKO) | pIC50 (SNU-C1) | pIC50 [3] | VEGF_ADSC\ECFC Angio CD31 TubeArea IC50/EC50 [1] [µM] | Basal_Viability ATP DLD-1 IC50/EC50 (DLD-1) [µM] | Basal_Viability ATP SW480 IC50/EC50 (SW480) [µM] | Basal_Viability ATP HCT116 IC50/EC50 (HCT116) [µM] | GSK3b inh pretreated_Viability ATP HCT116 IC50/EC50 [2] [µM] | Basal_Viability ATP Colo 320 IC50/EC50 (Colo320) [µM] | Basal_Viability ATP HT-29 IC50/EC50 (HT-29) [µM] | Basal_Viability ATP RKO IC50/EC50 (RKO) [µM] | Basal_Viability ATP SNU-C1 IC50/EC50 (SNU-C1) [µM] | VEGF_ADSC\ECFC Angio Hoechst NucArea IC50/EC50 [3] [µM] | further results
1 | C=CCN1CC[C@]23CCCC[C@H]2[C@H]1Cc1ccc(O)cc13 [NCGC00162247-06] | – | – | – | – | – | – | – | – | – | – | – | – | – | – | – | – | – | – | – | – | IC50/EC50, VEGF_ADSC\ECFC Angio CD31 TubeArea (assay number 2) [1]: > 10 µM; IC50/EC50, Basal_Viability ATP DLD-1 (assay number 23) (DLD-1): > 20 µM; IC50/EC50, Basal_Viability ATP SW480 (assay number 24) (SW480): > 20 µM; IC50/EC50, Basal_Viability ATP HCT116 (assay number 25) (HCT116): > 20 µM; IC50/EC50, GSK3b inh pretreated_Viability ATP HCT116 (assay number 26) ([2]; GSK3b inh pretreated): > 20 µM; IC50/EC50, Basal_Viability ATP Colo 320 (assay number 27) (Colo320): > 20 µM; IC50/EC50, Basal_Viability ATP HT-29 (assay number 28) (HT-29): > 20 µM; IC50/EC50, Basal_Viability ATP RKO (assay number 29) (RKO): > 20 µM; IC50/EC50, Basal_Viability ATP SNU-C1 (assay number 30) (SNU-C1): > 20 µM; IC50/EC50, VEGF_ADSC\ECFC Angio Hoechst NucArea (assay number 3) [3]: > 10 µM
2 | COP(=S)(OC)Oc1ccc(Sc2ccc(OP(=S)(OC)OC)cc2)cc1 [NCGC00163910-05] | < 5.00 | < 4.70 | 7.93 | < 4.70 | < 4.70 | < 4.70 | < 4.70 | 4.92 | 5.52 | < 5.00 | – | – | – | – | – | – | – | – | – | – | –
3 | COCC(C)N(C(=O)CCl)c1c(C)csc1C (centres unmarked) [NCGC00163935-05] | – | – | – | – | – | – | – | – | – | – | > 10 | > 20 | > 20 | > 20 | > 20 | > 20 | > 20 | > 20 | > 20 | > 10 | –
4 | O=C(Nc1ccc(Cl)cc1)Nc1ccc(Cl)c(Cl)c1 [NCGC00164034-05] | < 5.00 | 6.49 | 6.05 | 6.64 | 6.44 | 6.44 | 6.42 | 6.54 | 6.48 | < 5.00 | – | – | – | – | – | – | – | – | – | – | –
5 | CCCCC(CC)COC(=O)CC(C(=O)OCC(CC)CCCC)S(=O)(=O)O (centres unmarked) [NCGC00164140-07] | < 5.00 | < 4.70 | < 4.70 | < 4.70 | 4.78 | < 4.70 | < 4.70 | < 4.70 | < 4.70 | < 5.00 | – | – | – | – | – | – | – | – | – | – | –
6 | CO[C@H]1O[C@@H]2O[C@@]3(C)CC[C@H]4[C@H](C)CC[C@@H]([C@H]1C)[C@@]24OO3 [NCGC00164591-04] | – | – | – | – | – | – | – | – | – | – | > 10 | > 20 | > 20 | > 20 | > 20 | > 20 | > 20 | > 20 | > 20 | > 10 | –
7 | Cl.NC1=NCC2c3ccccc3Cc3ccccc3N12 (centres unmarked) [NCGC00165791-04] | – | – | – | – | – | – | – | – | – | – | > 10 | > 20 | > 20 | > 20 | > 20 | > 20 | > 20 | > 20 | > 20 | > 10 | –
8 | CCN(CC)C(=O)c1cccnc1 [NCGC00166026-02] | – | – | – | – | – | – | – | – | – | – | > 10 | > 20 | > 20 | > 20 | > 20 | > 20 | > 20 | > 20 | > 20 | > 10 | –
